Assay results as given in ChEMBL document CHEMBL5724914, “Linking interpersonal differences in gut microbiota composition and drug biotransformation activity” (2024).

Legend:
[1] = (§1) The drug is tested on Z-019 corresponding to rat gut metagenome with ENA study accession number: PRJEB37062 and ENA sample accession number: ERS12561818 for biotransformation under anaerobic condition. The drug concentrations were measured over 9 timepoints collected between 0 and 24 hours of incubation by liquid-chromatography-coupled mass spectrometry (LC–MS); conditions: 2 µM
[2] = human gut metagenome, 24 h, 2 µM
[3] = human gut metagenome, 24 h, 2 µM; remark: listed apart in the source
[4] = as §1, with “on WLS-027” for “on Z-019”, “to human” for “to rat”, “number: ERS12561744” for “number: ERS12561818”; conditions: 2 µM
[5] = human gut metagenome, 24 h, 2 µM; remark: listed apart in the source
[6] = as §1, with “Z-021” for “Z-019”, “to” for “to rat gut”, “ERS12561820” for “ERS12561818”; conditions: 2 µM
[7] = as §1, with “Z-023” for “Z-019”, “to” for “to rat gut”, “ERS12561822” for “ERS12561818”; conditions: 2 µM
[8] = as §1, with “Z-026” for “Z-019”, “to” for “to rat gut”, “ERS12561825” for “ERS12561818”; conditions: 2 µM
[9] = as §1, with “on WLS-052” for “on Z-019”, “to human” for “to rat”, “number: ERS12561747” for “number: ERS12561818”; conditions: 2 µM
[10] = as §1, with “on Z-009” for “on Z-019”, “to pig” for “to rat”, “number: ERS12561809” for “number: ERS12561818”; conditions: 2 µM
[11] = as §1, with “on Z-002” for “on Z-019”, “to rabbit” for “to rat”, “number: ERS12561802” for “number: ERS12561818”; conditions: 2 µM
[12] = human gut metagenome, 24 h, 2 µM; remark: listed apart in the source
[13] = human gut metagenome, 24 h, 2 µM; remark: listed apart in the source
[14] = as §1, with “Z-008” for “Z-019”, “to” for “to rat gut”, “ERS12561808” for “ERS12561818”; conditions: 2 µM
[15] = as §1, with “on Z-028” for “on Z-019”, “to mouse” for “to rat”, “number: ERS12561827” for “number: ERS12561818”; conditions: 2 µM
[16] = human gut metagenome, 24 h, 2 µM; remark: listed apart in the source
[17] = as §1, with “on WLS-098” for “on Z-019”, “to human” for “to rat”, “number: ERS12561754” for “number: ERS12561818”; conditions: 2 µM
[18] = human gut metagenome, 24 h, 2 µM; remark: listed apart in the source
[19] = as §1, with “on WLS-350” for “on Z-019”, “to human” for “to rat”, “number: ERS12561789” for “number: ERS12561818”; conditions: 2 µM
[20] = as §1, with “on Z-030” for “on Z-019”, “to mouse” for “to rat”, “number: ERS12561829” for “number: ERS12561818”; conditions: 2 µM

Measured: Bacterial Biotransformation
Also: call rule not given here.

CN1C(=O)CCS(=O)(=O)C1c1ccc(Cl)cc1 (stereo not drawn) [CHLORMEZANONE]
Compound metabolized: [13]
not listed: [20]
Compound NOT metabolized: all other assays above

O=C1NCC2(CCN(CCc3ccccc3)CC2)O1 [FENSPIRIDE]
Compound metabolized: [11]
Compound NOT metabolized: all other assays above

CCC1(c2ccc(N)cc2)CCC(=O)NC1=O (stereo not drawn) [AMINOGLUTETHIMIDE]
Compound metabolized: [10]
not listed: [6] | [7] | [8] | [15] | [20]
Compound NOT metabolized: all other assays above

COc1ccccc1N1CCN(CC(O)COc2cccc3ccccc23)CC1 (stereo not drawn) [NAFTOPIDIL]
Compound metabolized: [6] | [7] | [15]
not listed: [8] | [20]
Compound NOT metabolized: all other assays above

CN1C(=O)CC(C)(c2ccccc2)C1=O (stereo not drawn) [METHSUXIMIDE]
Compound metabolized: [6] | [13] | [18]
not listed: [20]
Compound NOT metabolized: all other assays above

O=C1[C@H](CC[C@H](O)c2ccc(F)cc2)[C@@H](c2ccc(O)cc2)N1c1ccc(F)cc1 [EZETIMIBE]
Compound metabolized: [2] | [5] | [7] | [13] | [16] | [17]
not listed: [6]
Compound NOT metabolized: all other assays above

C[C@@H]1CC[C@H]2[C@@H](C)C(=O)O[C@@H]3O[C@@]4(C)CC[C@@H]1[C@]32OO4 [ARTEMISININ]
not listed: [3] | [10] | [11] | [14] | [19]
Compound metabolized: all other assays above

Cc1nc2n(c(=O)c1CCN1CCC(c3noc4cc(F)ccc34)CC1)CCCC2 [RISPERIDONE]
Compound NOT metabolized: [1] | [8] | [20]
not listed: [17] | [19]
Compound metabolized: all other assays above
